The values that follow come from patent US12403141B2, “Deuterated MK2 pathway inhibitors and methods of using the same” (ACLARIS THERAPEUTICS, INC., priority 2019, dated 2025).

Entries after “also recorded” stand apart in the source; their conditions may differ.

The subject of series [1] is minipig hepatocytes. The series can be described thus: In vitro metabolite profile in minipig hepatocytes. It counts as in vitro ADME. More on the design: key to UV % at 280-290 nm or observed (+ or --), metabolite M532b (Hydroxylation) / UV % at 280-290 nm or observed (+ or --), metabolite M532c (Hydroxylation) / UV % at 280-290 nm or observed (+ or --), metabolite M563 (O-dealkylation + Glucuronidation) / UV % at 280-290 nm or observed (+ or --), metabolite M530b (Hydroxylation) / UV % at 280-290 nm or observed (+ or --), metabolite M530c (Hydroxylation): +: only detected by MS; --: not detected or trace. To be noted: 10 μM; for UV % at 280-290 nm, Parent-T0 min: T0 min (normalized as 100%). How it is done:
(§1) Briefly, each test compound (final concentration of 10 μM containing 0.1% DMSO) was incubated with rat, dog, minipig, monkey, or human hepatocytes (final viable cell density of 1×10^6 cells/mL) at 37° C. with 5% CO2 in HI hepatocyte maintenance media (BIOIVT; Catalog #Z99009) for 120 minutes. Reactions were initiated by combining 200 μL of pre-warmed 2× dosing solution containing 20 μM test compound and 0.2% DMSO in HI maintenance media with 200 μL of pre-warmed hepatocyte solution containing 2×10^6 cells/mL in HI maintenance media. Samples were taken at 0 minutes (T0) and 120 minutes (T120) by quenching the reaction with 1200 μL acetonitrile. After quenching, the samples were sonicated for 2 minutes and then centrifuged at 1400 rpm for 5 minutes. A 1400-μL aliquot of the supernatant was evaporated under a stream of N2 until dry. The dried extracts were then reconstituted with 200 μL acetonitrile: H2O (1:3 v/v), vortexed for 2 minutes and centrifuged at 14000 rpm for 5 minutes. A 2-μL aliquot of the supernatant was injected onto a Xevo UPLC-UV-G2-S Q-Tof system (Waters®) with positive-ion electrospray ionization for analysis. Chromatographic separation was achieved on an Acquity UPLC®BEH C18 column (2.1×50 mm, 1.7 μm; Waters®) by gradient elution using varying proportions of mobile phase A (H2O with 0.1% formic acid) and mobile phase B (acetonitrile with 0.1% formic acid) at a constant flow rate of 400 μL/minute over a total run time of 10 minutes. LC-UV-MS extract ion chromatograms (EIC) of the T120 samples were compared to the T0 samples to identify the major putative metabolites which were named as Mm/z.

In series [2] the test system is dog hepatocytes. The series can be described thus: In vitro metabolite profile in dog hepatocytes. Details: key to UV % at 280-290 nm or observed (+ or --), metabolite M387 (O-dealkylation) / UV % at 280-290 nm or observed (+ or --), metabolite M532b (Hydroxylation) / UV % at 280-290 nm or observed (+ or --), metabolite M532c (Hydroxylation) / UV % at 280-290 nm or observed (+ or --), metabolite M532d (Hydroxylation) / UV % at 280-290 nm or observed (+ or --), metabolite M532e (Hydroxylation) / UV % at 280-290 nm or observed (+ or --), metabolite M563 (O-dealkylation + Glucuronidation) / UV % at 280-290 nm or observed (+ or --), metabolite M530b (Hydroxylation) / UV % at 280-290 nm or observed (+ or --), metabolite M530c (Hydroxylation) / UV % at 280-290 nm or observed (+ or --), metabolite M530d (Hydroxylation) / UV % at 280-290 nm or observed (+ or --), metabolite M530e (Hydroxylation): +: only detected by MS; --: not detected or trace. It counts as in vitro ADME. To be noted: 10 μM; for UV % at 280-290 nm, Parent-T0 min: T0 min (normalized as 100%). As for the experimental part: as §1

Series [3] is described as follows: PO pharmacokinetics in male SD rats. To be noted: PO 2 mpk. It counts as in vivo, rat. How it is done: Pharmacokinetic parameters of some examples were evaluated in male Sprague Dawley (SD) rats after intravenous (IV) and oral (PO) dosing. Male SD rats (5-6 weeks of age) were fasted for 12 hours before administration of the compound of interest. Animals were allowed access to food 2 h after dosing and water was given ad libitum. Except for the compound of Example 13, pharmacokinetic experiments comparing deuterium containing and non-deuterium containing compounds were performed at the same time using the same cohort of animals. The pharmacokinetic properties of the compound of Example 13 were evaluated separately and compared to previously generated data.
For oral (PO) dosing, a 0.2 mg/mL suspension of the test compound was prepared in a vehicle comprising 0.5% Tween-20 in 0.5% methyl cellulose in phosphate buffered saline (PBS). For a 2 mpk dose, 10 mL/kg of this dosing vehicle was administered by oral gavage. Blood samples from each animal was collected di-sodium EDTA coated containers at 0.25, 0.5, 1.0, 2.0, 4.0, 8.0 10.0 and 24.0 hours after dosing. Plasma was separated from the blood samples within 15 minutes following collection and stored at −20±5° C. before analysis.
A standard curve was generated from a stock solution of the test compound with known concentration in methanol. […]
Plasma samples collected from rats after dosing were allowed to reach room temperature. […] The supernatant (10 uL) was analyzed by LC-MS/MS (LC: Shimadzu SIL HTc, MS: MDS Sciex API-5500 & 4000 using 75%/25% acetonitrile/0.2% formic acid in Milli-Q water, flow rate: 1.0 mL/min, run time 3 minutes, Atlantis dC18(50×4.6 mm, 3 um; Waters®)) and the concentrations of the test compound in the plasma samples collected from rats at each time point were determined by comparison to the standard curve samples.
Pharmacokinetic parameters were calculated from the plasma concentrations at each time point using Phoenix WinNonlin (Version 7.0) by the non-compartmental analysis (NCA) method. […]

[4] abbreviates: 120 min, relative to parent at T0.

As to `[2H]C([2H])(Oc1cc(C)n(-c2cc(-c3ccnc(C(C)(C)O)n3)ncc2C)c(=O)c1Cl)c1ncc(F)cc1F` (single isomer, unassigned) [Example 1-D2, (P)-3-Chloro-4-((3,5-difluoropyridin-2-yl)methoxy-d2)-2′-(2-(2-hydroxypropan-2-yl)pyrimidin-4-yl)-5′,6-dimethyl-2H-[1,4′-bipyridin]-2-one], in series [1] (setting [4]), the “UV % at 280-290 nm or observed (+ or --), metabolite M532b (Hydroxylation)” value is given as “+”; the “UV % at 280-290 nm or observed (+ or --), metabolite M532c (Hydroxylation)” value is “+”; the “UV % at 280-290 nm, Parent-T120 min” value amounted to 81.1%. In series [1], the “UV % at 280-290 nm, Parent-T0 min” value is 100.0%. Further, in series [2] (setting [4]), the “UV % at 280-290 nm or observed (+ or --), metabolite M387 (O-dealkylation)” value (“UV % … (O-dealkylation)” below) is given as “+”; the “UV % at 280-290 nm or observed (+ or --), metabolite M532b (Hydroxylation)” value was “--”; the “UV % at 280-290 nm or observed (+ or --), metabolite M532c (Hydroxylation)” value was “+”; the “UV % at 280-290 nm or observed (+ or --), metabolite M532e (Hydroxylation)” value is given as “+”. Further, in series [2] (setting [4]), the “UV % at 280-290 nm or observed (+ or --), metabolite M532d (Hydroxylation)” value was “--” and the “UV % at 280-290 nm, Parent-T120 min” value is 96.0%. Besides, the “UV % at 280-290 nm, Parent-T0 min” value in series [2] is recorded as 100.0%. Moreover, in series [3] (versus non-deuterated comparator, listed as Example 1), the “effect of deuterium substitution on exposure after PO dosing (AUC)” value is “significantly higher exposure; also recorded: increased exposure”. In addition, in series [3] (Sprague-Dawley, rat, plasma, 2 mg/kg, ± one standard deviation, read-out: AUC0-10 hr), the AUC(0-t) was determined as 2020 ± 120 ng·h/mL.

`Cc1cnc(-c2ccnc(C(C)(C)O)n2)cc1-n1c(C)cc(OCc2ncc(F)cc2F)c(Cl)c1=O` (atropisomer, axis not shown; (P)) [Example 1-H2, (P)-3-chloro-4-((3,5-difluoropyridin-2-yl)methoxy)-2′-(2-(2-hydroxypropan-2-yl)pyrimidin-4-yl)-5′,6-dimethyl-2H-[1,4′-bipyridin]-2-one]: in series [1] (setting [4]), the “UV % … (O-dealkylation)” value was determined as 14.4%; the “UV % at 280-290 nm or observed (+ or --), metabolite M530b (Hydroxylation)” value is “--”; the “UV % at 280-290 nm or observed (+ or --), metabolite M530c (Hydroxylation)” value was “+”; the “UV % at 280-290 nm or observed (+ or --), metabolite M530e (Hydroxylation)” value was found to be 2.4%. Moreover, in series [1] (setting [4]), the “UV % at 280-290 nm or observed (+ or --), metabolite M563 (O-dealkylation + Glucuronidation)” value is reported as “+”; the “UV % at 280-290 nm or observed (+ or --), metabolite M530d (Hydroxylation)” value amounted to 1.6%; the “UV % at 280-290 nm, Parent-T120 min” value is listed as 70.0%. Further, in series [1], the “UV % at 280-290 nm, Parent-T0 min” value is 100.0%. Besides, in series [2] (setting [4]), the “UV % … (O-dealkylation)” value is listed as 4.1%; the “UV % at 280-290 nm or observed (+ or --), metabolite M530b (Hydroxylation)” value was “--”; the “UV % at 280-290 nm or observed (+ or --), metabolite M530c (Hydroxylation)” value is listed as “+”; the “UV % at 280-290 nm or observed (+ or --), metabolite M530e (Hydroxylation)” value is “+”. In addition, in series [2] (setting [4]), the “UV % at 280-290 nm or observed (+ or --), metabolite M563 (O-dealkylation + Glucuronidation)” value was “+”; the “UV % at 280-290 nm or observed (+ or --), metabolite M530d (Hydroxylation)” value is on record as “--”; the “UV % at 280-290 nm, Parent-T120 min” value is listed as 87.0%. For the same compound, in series [2], the “UV % at 280-290 nm, Parent-T0 min” value was found to be 100.0%. For the same compound, the AUC0-10 hr in series [3] (± one standard deviation) came out at 854 ± 228 ng·h/mL.
